This is an account of results in paper PMC6105845, “Nucleotide Prodrug Containing a Nonproteinogenic Amino Acid To Improve Oral Delivery of a Hepatitis C Virus Treatment” (Antimicrobial Agents and Chemotherapy, 2018).

The series addresses HINT1 (Homo sapiens, UniProt P49773). Description: P-N bond cleavage of metabolite X by HINT1. Format: biochemical. As to the method:
Biochemical assays studying prodrug cleavage have been described previously ([8]). In brief, the cleavages of GS2 by CATA, CES1, CES2, and HINT1 were assessed in vitro. The reaction substrates and products were monitored over time by high-performance liquid chromatography (HPLC).

SMILES strings stand for the structures.

Chain of HINT1 (P49773 whole entry): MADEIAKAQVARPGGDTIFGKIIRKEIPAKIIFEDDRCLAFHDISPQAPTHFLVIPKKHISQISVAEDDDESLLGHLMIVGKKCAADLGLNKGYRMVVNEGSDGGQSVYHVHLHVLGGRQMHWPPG

For `CC(C)(NP(=O)(O)OC[C@H]1O[C@@](C#N)(c2ccc3c(N)ncnn23)[C@](C)(O)[C@@H]1O)C(=O)O` [metabolite X of GS2], the “HINT1 specific activity higher than toward metabolite X of GS-6620” value stood at 5.7 fold and the “HINT1 specific activity, P-N bond cleavage” value was 341 pmol/min/µg.

In the case of `C[C@H](NP(=O)(O)OC[C@H]1O[C@@](C#N)(c2ccc3c(N)ncnn23)[C@](C)(O)[C@@H]1O)C(=O)O` [metabolite X of GS-6620], the “HINT1 specific activity, P-N bond cleavage” value was 60 pmol/min/µg.
